Data published in patent publication US20230173076A1, “METABOLICALLY STABLE PEPTIDE ANALOGS” (UNIVERSITÉ DE STRASBOURG, priority 2016, published 2023).
Positions of bridges follow the written chain, without caps; N, C: chain ends. Non-standard residues stand in square brackets, D forms with d. Residues, ends and D or L forms follow the SMILES beside them. ξ: configuration not given here. *: point of attachment. X1 = CCN([C@@H](C)C(=O)C[C@@H](CCCCNC(=O)CCC(F)(F)C(F)(F)C(F)(F)C(F)(F)C(F)(F)C(F)(F)C(F)(F)C(F)(F)F)C(=O)NCC(N)=O)*; Ile(3ξ) = CCC(C)[C@H](N)C(=O)O

Legend:
[1] = Human plasma stability (HPLC-MS/MS); settings: 37° C.; for half-life at 1 μM: human, plasma, Human plasma stability (t1/2); for Human plasma stability (t1/2): 1 μM
Method: This procedure is designed to determine the stability of a test compound in blood or plasma from human or animal species in a 96-well plate format. The test compound is quantified at 5 time points by HPLC-MS/MS analysis.
Test concentration: 1 μM with a final DMSO concentration of 0.5%.
Experimental protocol : Blood or plasma are pre-warmed at 37° C. water bath for 5 min, followed by addition of the test compound. The incubation is performed in a 37° C. water bath for 2 h. An aliquot of the incubation mixture is transferred to acetonitrile at 0, 0.5, 1, 1.5 and 2 h, respectively. Samples are then mixed and centrifuged. Supernatants are used for HPLC-MS/MS analysis. Reference compounds Propoxycaine and propantheline are tested simultaneously with the test compound in each assay. Analytical methods Samples are analyzed by HPLC-MS/MS using selected reaction monitoring. The HPLC system consists of a binary LC pump with autosampler, a C-18 column, and a gradient. Conditions may be adjusted as necessary. Data analysis Peak areas corresponding to the test compound are recorded. The compound remaining (%) is calculated by comparing the peak area at each time point to time zero. The half-life is calculated from the slope of the initial linear range of the logarithmic curve of compound remaining (%) vs. time, assuming first order kinetics
Test concentration: 1 μM with a final DMSO concentration of 0.5%. Experimental protocol: Blood or plasma are pre-warmed at 37° C. water bath for 5 min, followed by addition of the test compound. The incubation is performed in a 37° C. water bath for 2 h. An aliquot of the incubation mixture is transferred to acetonitrile at 0, 0.5, 1, 1.5 and 2 h, respectively. Samples are then mixed and centrifuged. Supernatants are used for HPLC-MS/MS analysis. Reference compounds Propoxycaine and propantheline are tested simultaneously with the test compound in each assay. Analytical methods Samples are analyzed by HPLC-MS/MS using selected reaction monitoring. The HPLC system consists of a binary LC pump with autosampler, a C-18 column, and a gradient. Conditions may be adjusted as necessary. Data analysis Peak areas corresponding to the test compound are recorded. The compound remaining (%) is calculated by comparing the peak area at each time point to time zero. The half-life is calculated from the slope of the initial linear range of the logarithmic curve of compound remaining (%) vs. time, assuming first order kinetics
Test concentration: 1 μM with a final DMSO concentration of 0.5%. Experimental protocol: Blood or plasma are pre-warmed at 37° C. water bath for 5 min, followed by addition of the test compound. The incubation is performed in a 37° C. water bath for 2 h. An aliquot of the incubation mixture is transferred to acetonitrile at 0, 0.5, 1, 1.5 and 2 h, respectively. Samples are then mixed and centrifuged. Supernatants are used for HPLC-MS/MS analysis. Reference compounds Propoxycaine and propantheline are tested simultaneously with the test compound in each assay. Analytical methods Samples are analyzed by HPLC-MS/MS using selected reaction monitoring. The HPLC system consists of a binary LC pump with autosampler, a C-18 column, and a gradient. Conditions may be adjusted as necessary. Data analysis Peak areas corresponding to the test compound are recorded. The compound remaining (%) is calculated by comparing the peak area at each time point to time zero. The half-life is calculated from the slope of the initial linear range of the logarithmic curve of compound remaining (%) vs. time, assuming first order kinetics.

[2] = target: T1, human vasopressin Oxytocin receptor (Homo sapiens, UniProt P30559); assay: Radioligand binding assay, human oxytocin receptor in transfected Chem-1 cells; settings: read-out: Affinity % of inhibition à 10 nM
T1 construct: expressed in transfected cells; host or cells: Chem-1 cells (membrane homogenates)
T1 sequence (P30559 1-389): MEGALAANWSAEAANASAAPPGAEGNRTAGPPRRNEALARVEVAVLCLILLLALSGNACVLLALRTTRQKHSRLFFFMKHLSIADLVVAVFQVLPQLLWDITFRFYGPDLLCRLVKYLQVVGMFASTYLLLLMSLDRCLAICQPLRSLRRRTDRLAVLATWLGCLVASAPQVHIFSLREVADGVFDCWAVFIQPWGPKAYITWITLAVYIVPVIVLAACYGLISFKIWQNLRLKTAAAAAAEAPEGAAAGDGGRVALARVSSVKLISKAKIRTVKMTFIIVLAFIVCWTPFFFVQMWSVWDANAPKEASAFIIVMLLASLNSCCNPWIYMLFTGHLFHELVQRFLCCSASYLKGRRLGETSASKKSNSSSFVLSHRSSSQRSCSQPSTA
Method: Experimental protocol: […] Following incubation, the samples are filtered rapidly under vacuum through glass fiber filters (GF/B, Packard) presoaked with 0.3% PEI and rinsed several times with ice-cold 50 mM Tris-HCl and 0.1% BSA using a 96-sample cell harvester (Unifilter, Packard). The filters are dried then counted for radioactivity in a scintillation counter (Topcount, Packard) using a scintillation cocktail (Microscint 0, Packard). The results are expressed as a percent inhibition of the control radioligand specific binding.

[3] = in vitro; settings: human, plasma, Human plasma stability (t1/2)
[4] = physchem
[5] = Solubility study in water by visual observation

| SMILES | half-life at 1 μM ([1]; apelin analogs table) [h] | inhibition at 0.01 µM [2] [%] | solubility at 2 min [4] [µM] | solubility at 2 min [5] [µM] | further results |
| --- | --- | --- | --- | --- | --- |
| CSCC[C@H](NC(=O)[C@@H]1CCCN1C(=O)CNC(=O)[C@H](CCCCN)NC(=O)[C@H](Cc1c[nH]cn1)NC(=O)[C@H](CO)NC(=O)[C@H](CC(C)C)NC(=O)[C@H](CCCNC(=N)N)NC(=O)[C@@H]1CCCN1C(=O)[C@H](CCCNC(=N)N)NC(=O)[C@H](CCC(N)=O)NC(=O)[C@@H](N)CCCCNC(=O)CCC(F)(F)C(F)(F)C(F)(F)C(F)(F)C(F)(F)C(F)(F)C(F)(F)C(F)(F)F)C(=O)N1CCC[C@H]1C(=O)N[C@@H](Cc1ccccc1)C(=O)O [LE-124] | 5.95 |  |  |  |  |
| CC[C@H](C)[C@@H]1NC(=O)[C@H](Cc2ccc(O)cc2)NC(=O)[C@@H](N)CSSC[C@@H](C(=O)N2CCC[C@H]2C(=O)N[C@@H](CC(C)C)C(=O)NCC(N)=O)NC(=O)[C@H](CC(N)=O)NC(=O)[C@H](CCC(N)=O)NC1=O [Oxytocin, reference compound] |  | 102 | > 100 |  | half-life at 1 μM [3]: 2.45 h |
| CSCC[C@H](NC(=O)[C@@H]1CCCN1C(=O)CNC(=O)[C@H](CCCCN)NC(=O)[C@H](Cc1c[nH]cn1)NC(=O)[C@H](CO)NC(=O)[C@H](CC(C)C)NC(=O)[C@H](CCCNC(=N)N)NC(=O)[C@@H]1CCCN1C(=O)[C@H](CCCNC(=N)N)NC(=O)[C@H](CCC(N)=O)NC(=O)CCC(F)(F)C(F)(F)C(F)(F)C(F)(F)C(F)(F)C(F)(F)C(F)(F)C(F)(F)F)C(=O)N1CCC[C@H]1C(=O)N[C@@H](Cc1ccccc1)C(=O)O [LE-122] | > 20.7 |  | > 100 |  | Human plasma stability (t1/2) ([1]; apelin analogs table): 20.68 h |
| CC[C@H](C)[C@H](NC(=O)[C@H](Cc1ccc(O)cc1)NC(=O)[C@@H](NC(=O)[C@H](CCCNC(=N)N)NC(=O)[C@@H](N)CC(=O)O)C(C)C)C(=O)N[C@@H](Cc1cnc[nH]1)C(=O)N1CCC[C@H]1C(=O)N[C@@H](Cc1ccccc1)C(=O)O [Angiotensin II, reference compound] |  |  |  | > 100 |  |
| CCC(C)[C@@H]1NC(=O)[C@H](Cc2ccc(O)cc2)NC(=O)[C@@H](N)CSSC[C@@H](C(=O)N(CC)[C@@H](C)C(=O)C[C@@H](CCCCNC(=O)CCC(F)(F)C(F)(F)C(F)(F)C(F)(F)C(F)(F)C(F)(F)C(F)(F)C(F)(F)F)C(=O)NCC(N)=O)NC(=O)[C@H](CC(N)=O)NC(=O)[C@H](CCC(N)=O)NC1=O (some centres unmarked) [SR-11-74] (H-CY[Ile(3ξ)]QNC-X1; disulfide 1-6) |  | 91.3 | > 100 |  | half-life at 1 μM ([1]; oxytocin analogs table): 3.98 h |
| CC[C@H](C)[C@H](NC(=O)[C@H](Cc1ccc(O)cc1)NC(=O)[C@@H](NC(=O)[C@H](CCCNC(=N)N)NC(=O)[C@H](CC(=O)O)NC(=O)CCC(F)(F)C(F)(F)C(F)(F)C(F)(F)C(F)(F)C(F)(F)C(F)(F)C(F)(F)F)C(C)C)C(=O)N[C@@H](Cc1cnc[nH]1)C(=O)N1CCC[C@H]1C(=O)N[C@@H](Cc1ccccc1)C(=O)O [LE120] |  |  |  | > 100 | Human plasma stability (t1/2) ([1]; angiotensin II analogs table): >24 h; half-life at 1 μM ([1]; angiotensin II analogs table): > 24 h |
